# Columns and labels:
# [1] = target: P450 3A4 (Homo sapiens, UniProt P08684); test: P450 3A4 inhibition; type: in vitro ADME
# Description: (§1) Compound 76 was in several in vitro assays to investigate both metabolism and pharmacokinetics. These assays were performed according to known methods as generally described in the following references: Conde-Ceide et al. ACS Med. Chem. Lett. 2015, 6, 716-720; Morris et al. J. Med. Chem. 2014, 57, 10192-10197; and Bubser et al. ACS Chem. Neurosci. 2014, 5, 920-942.
# [2] = solubility (aqueous, faSSIF, SGF); type: physicochemical
# [3] = fraction unbound in plasma, dog; type: in vitro ADME; settings: read-out: Dog Fu (plasma)
# Description: as §1
# [4] = target: T1, Human M2 (Homo sapiens, UniProt P08172); test: analogous cell-based functional assay using human M2
# T1 sequence (P08172 1-466): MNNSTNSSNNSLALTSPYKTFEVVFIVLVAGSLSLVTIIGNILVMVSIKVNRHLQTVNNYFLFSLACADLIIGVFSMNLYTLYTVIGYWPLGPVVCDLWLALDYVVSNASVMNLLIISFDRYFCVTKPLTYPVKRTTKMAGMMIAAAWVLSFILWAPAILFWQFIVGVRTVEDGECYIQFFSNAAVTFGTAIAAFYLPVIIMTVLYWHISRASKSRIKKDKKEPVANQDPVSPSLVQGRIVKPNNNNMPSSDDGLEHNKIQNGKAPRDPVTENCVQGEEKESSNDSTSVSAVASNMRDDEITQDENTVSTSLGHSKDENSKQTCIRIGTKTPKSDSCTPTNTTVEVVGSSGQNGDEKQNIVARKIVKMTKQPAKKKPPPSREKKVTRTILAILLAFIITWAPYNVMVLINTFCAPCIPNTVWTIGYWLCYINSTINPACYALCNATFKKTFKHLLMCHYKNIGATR
# [5] = intrinsic clearance, human; type: in vitro ADME
# Description: as §1
# [6] = target: P450 2D6 (Homo sapiens, UniProt P10635); test: P450 2D6 inhibition; type: in vitro ADME
# Description: as §1
# [7] = intrinsic clearance, dog; type: in vitro ADME
# Description: as §1
# [8] = intrinsic clearance, rat; type: in vitro ADME
# Description: as §1
# [9] = test system: amphetamine-induced hyperlocomotion; test: amphetamine-induced hyperlocomotion in rats; type: in vivo, male Sprague-Dawley rats; settings: for percent reversal of amphetamine-induced hyperlocomotion: rat, 1 mg/kg amphetamine s.c.
# Description: d-Amphetamine hemisulfate was obtained from Sigma (St. Louis, Mo.). Salt-correction was used to determine the correct amount of the d-amphetamine hemisulfate form in milligrams to add to sterile water in order to yield a […] solution, which would be dosed at 1 mL/kg body weight of each animal. […] The solutions were formulated so that animals were injected with a volume equal to 10 mL/kg body weight for all compounds. The appropriate amount according to the dosage was mixed in 10% Tween 80 (Sigma) in sterile water. The mixtures were then vortexed and stored in a 39° C. sonication bath for 1 hour, until in a microsuspension (except for the highest dose, which was a suspension).
# Male Sprague-Dawley rats weighing 239-300 grams and averaging 265 g (Harlan, Inc., Indianapolis, Ind.) were used. They were housed in the animal care facility certified by the American Association for the Accreditation of Laboratory Animal Care (AALAC) under a 12-hour light/dark cycle (lights on: 6 a.m.; lights off: 6 p.m.) and had free access to food and water. The animals used in this experiment were food-deprived the evening before experimentation for oral dosing of compound/vehicle. The experimental protocols performed during the light cycle were approved by the Institutional Animals Care and Use Committee of Vanderbilt University and conformed to the guidelines established by the National Research Council Guide for the Care and Use of Laboratory Animals.
# Male Harlan Sprague Dawley rats were habituated in Smart Open Field locomotor activity test chambers (Hamilton-Kinder, San Diego, Calif.) with 16×16 photo beams to automatically record locomotor activity. […] They were monitored for an additional 30 minutes and then injected subcutaneously with vehicle or 1 mg/kg amphetamine. Animals were then monitored for an additional 60 minutes, for a total of 120 minutes. Data were expressed as changes in ambulation defined as total number of beam breaks per 5 minute interval. Terminal brain and plasma samples were collected at the end of the study for pharmacokinetic analysis.
# Behavioral data were analyzed using a two-way ANOVA with main effects of treatment and time. Post hoc analysis was performed using a Dunnett's t-test with all treatment groups compared to the VAMP group using GraphPad Prism V.5.04 (GraphPad Software, San Diego, Calif.). Data were graphed using GraphPad Prism V.5.04 (GraphPad Software, San Diego, Calif.). A probability of p<0.05 was taken as the level of statistical significance. In addition, the total number of beam breaks from the amphetamine administration (65 min) to the end of the study (120 min) was calculated and graphed. Percent Reversal was calculated as follows using Microsoft Excel: In each animal, total ambulation from t=65 to t=120 was summed. The mean of each sum was calculated in the VAMP group. Then, for each animal, Percent Reversal was calculated with the following formula: Percent Reversal=100−{[(total ambulation in each animal from t=65 to t=120)/(mean of each sum from t=65 to t=120 in VAMP group)]*100}. The mean Percent Reversal, as well as the standard error, was calculated for each dose group using GraphPad Prism V5.04.
# [10] = test system: 68 primary molecular targets; test: Eurofins LeadProfilingScreen (binding); settings: 10 μM (binding); all targets except human adenosine A2a
# [11] = test system: MDCK-MDR1; test: MDCK-MDR1 permeability and efflux; type: in vitro ADME; settings: efflux ratio
# Description: as §1
# [12] = MDCK-MDR1 permeability and efflux; type: in vitro ADME; settings: dog, MDCK-MDR1
# Description: as §1
# [13] = test system: four strains of Salmonella; test: Eurofins Ames Test; settings: 5-100 μM
# [14] = target: cynomolgus monkey M4 (Macaca fascicularis, UniProt G7PQB4); test: mAChR M4 cell-based functional assay (calcium flux), cyno M4; settings: CHO-K1 cells
# Chain of cynomolgus monkey M4 (G7PQB4 1-479): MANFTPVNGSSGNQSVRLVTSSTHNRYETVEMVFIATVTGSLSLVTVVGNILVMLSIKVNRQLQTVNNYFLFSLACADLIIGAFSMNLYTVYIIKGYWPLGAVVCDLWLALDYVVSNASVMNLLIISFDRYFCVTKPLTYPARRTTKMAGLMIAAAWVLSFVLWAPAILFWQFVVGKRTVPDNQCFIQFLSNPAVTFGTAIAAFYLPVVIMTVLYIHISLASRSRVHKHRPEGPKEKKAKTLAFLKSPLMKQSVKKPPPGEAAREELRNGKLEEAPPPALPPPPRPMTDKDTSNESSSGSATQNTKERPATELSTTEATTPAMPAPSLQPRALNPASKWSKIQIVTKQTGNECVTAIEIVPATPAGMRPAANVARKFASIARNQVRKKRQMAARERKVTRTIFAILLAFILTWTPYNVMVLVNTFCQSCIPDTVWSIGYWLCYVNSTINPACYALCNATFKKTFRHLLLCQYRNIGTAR
# Chain of P450 2D6 (P10635 whole entry): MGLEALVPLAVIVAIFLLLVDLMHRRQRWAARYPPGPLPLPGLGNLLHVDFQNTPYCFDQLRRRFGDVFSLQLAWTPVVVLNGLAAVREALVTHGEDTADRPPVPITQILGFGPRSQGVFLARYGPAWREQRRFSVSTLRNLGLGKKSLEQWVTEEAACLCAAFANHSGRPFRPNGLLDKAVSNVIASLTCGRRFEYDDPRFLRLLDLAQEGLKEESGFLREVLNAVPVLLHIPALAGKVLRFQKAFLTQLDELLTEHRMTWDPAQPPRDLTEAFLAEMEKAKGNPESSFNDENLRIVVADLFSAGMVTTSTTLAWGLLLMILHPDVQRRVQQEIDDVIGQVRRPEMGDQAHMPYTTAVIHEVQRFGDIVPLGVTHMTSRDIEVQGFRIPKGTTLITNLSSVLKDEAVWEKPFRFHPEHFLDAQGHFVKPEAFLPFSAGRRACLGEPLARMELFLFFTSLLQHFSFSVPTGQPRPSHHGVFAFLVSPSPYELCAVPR
# Chain of P450 3A4 (P08684 whole entry): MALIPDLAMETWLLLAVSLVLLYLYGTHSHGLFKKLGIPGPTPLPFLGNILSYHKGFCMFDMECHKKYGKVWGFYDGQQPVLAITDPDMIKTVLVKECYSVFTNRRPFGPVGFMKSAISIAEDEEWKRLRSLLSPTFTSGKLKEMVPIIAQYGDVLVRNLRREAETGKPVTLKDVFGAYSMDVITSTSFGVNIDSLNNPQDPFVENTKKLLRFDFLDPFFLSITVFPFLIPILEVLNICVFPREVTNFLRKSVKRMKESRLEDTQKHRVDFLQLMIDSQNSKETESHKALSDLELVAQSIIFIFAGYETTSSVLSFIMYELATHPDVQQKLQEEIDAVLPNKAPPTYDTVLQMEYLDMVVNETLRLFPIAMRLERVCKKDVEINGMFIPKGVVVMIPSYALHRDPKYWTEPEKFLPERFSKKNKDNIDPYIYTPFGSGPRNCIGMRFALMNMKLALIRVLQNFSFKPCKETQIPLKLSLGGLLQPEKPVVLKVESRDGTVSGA
smiles,measurement,setting,value
"Cc1nnc2sc3c(NCc4ccc(C(C)(C)O)cc4)ncnc3c2c1C [Compound 76, 2-[4-[[(3,4-Dimethylpyrimido[4′,5′:4,5]thieno[2,3-c]pyridazin-8-yl)amino]methyl]phenyl]propan-2-ol]",IC50,[1],24 µM
same,solubility,"[2]; aqueous medium (pH 7.4), pH 7.4, aqueous buffer",166 µM
same,SGF,[2]; solubility in SGF,180 µM
same,faSSIF,[2]; solubility in faSSIF,24 µM
same,fraction unbound,[3],0.057
same,Emax,[4]; Human M2,48%
same,EC50,[4]; analogous assay using human M2,2.8 µM
same,CLint scaled,[5],15 mL/min/kg
same,IC50,[6],> 30 µM
same,CLint scaled,[7],35 mL/min/kg
same,CLint scaled,[8],87 mL/min/kg
same,percent reversal of amphetamine-induced hyperlocomotion,[9]; 0.1 mg/kg p.o.,8.1%
same,percent reversal of amphetamine-induced hyperlocomotion,[9]; 0.3 mg/kg p.o.,32.8%
same,percent reversal of amphetamine-induced hyperlocomotion,[9]; 1 mg/kg p.o.,50.7%
same,percent reversal of amphetamine-induced hyperlocomotion,[9]; 3 mg/kg p.o.,44.3%
same,percent reversal of amphetamine-induced hyperlocomotion,[9]; 10 mg/kg p.o.,62.8%
same,percent reversal of amphetamine-induced hyperlocomotion,[9]; […] p.o.,25.6%
same,reversal of amphetamine-induced hyperlocomotion (in words),"[9]; systemic administration, similar extent as VU0467154 at 10 mg/kg p.o.",significant and sustained reversal
same,inhibition of each target in the LeadProfilingScreen,[10],< 50%
same,MDCK-MDR1 ER,[11],3.1 (Papp A→B:
same,Papp A→B,[12],20 ×10⁻⁶ cm/s
same,Ames test result,[13],clean
same,EC50,[14],0.12 µM
